Measured values: US11730720B2, “ALK5 inhibitors” (THERAVANCE BIOPHARMA R&D IP, LLC, priority 2018, dated 2023)

Assays:
[1] = target: T1, recombinant human ALK5 (TGF-βR1) protein (Homo sapiens, UniProt P36897); assay: Biochemical ALK5 (TGF-βR1) assay to measure pKi (LANCE Ultra ULight kinase assay); settings: apparent pKi, converted from pIC50 using the Cheng-Prusoff equation
T1 construct: purchased Life Technologies PR9075A
T1 sequence (P36897 34-503): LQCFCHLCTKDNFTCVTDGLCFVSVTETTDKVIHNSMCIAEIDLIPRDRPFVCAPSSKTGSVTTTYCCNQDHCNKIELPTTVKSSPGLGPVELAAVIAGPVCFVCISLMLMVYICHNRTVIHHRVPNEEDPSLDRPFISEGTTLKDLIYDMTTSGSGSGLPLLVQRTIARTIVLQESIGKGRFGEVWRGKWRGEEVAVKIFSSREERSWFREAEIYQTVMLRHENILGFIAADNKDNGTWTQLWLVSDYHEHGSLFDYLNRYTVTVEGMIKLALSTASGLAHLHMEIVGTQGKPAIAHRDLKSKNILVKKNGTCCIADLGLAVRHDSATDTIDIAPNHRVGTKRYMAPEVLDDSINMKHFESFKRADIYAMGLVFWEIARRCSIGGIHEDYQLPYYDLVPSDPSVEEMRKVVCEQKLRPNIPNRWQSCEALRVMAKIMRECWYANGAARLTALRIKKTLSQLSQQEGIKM
Procedure: Example 254: Biochemical ALK5 (TGF-βR1) Assay to Measure pKi
The assays were performed in a 384-well plate (24 columns×16 wells/rows). An Echo® 550 Liquid Handler (Labcyte) was used to prepare various intermediate concentrations of compounds of the present disclosure in 100% DMSO. From the intermediate concentrations, a range of concentrations (from 10 μM to 25 pM corresponding to volumes up to 105 nL) were prepared and ejected into a final assay plate to be used to create individual dose response curves for each of the subject compounds. To a separate column within the assay plate, 105 nL of DMSO in each well was used to establish a maximum assay signal. Additionally, 105 nL of 100 μM SD-208, a selective TGF-βR1 inhibitor (Catalog #S7624, Selleck Chemicals), was used in another column of wells to establish a minimal assay signal.
With a multidrop dispenser, 8 μL of enzyme mixture (1.25× final) was added to each well. The enzyme mixture consisted of 250 pM ALK5 enzyme and 62.5 nM peptide substrate (LANCE® (lanthanide chelate excite) Ultra ULight™-DNA Topoisomerase 2-alpha (Thr1342)) prepared in assay buffer (50 mM HEPES, 10 mM MgCl2, 1 mM EGTA, 0.01% Tween-20, pH 7.5 at room temperature) with 2 mM DTT added prior to use. The plate was then sealed with an adhesive seal and allowed to equilibrate for 60 minutes at room temperature.
Next, 2 μL of 125 μM ATP (5× final, 125 μM ATP prepared in assay buffer with 2 mM DTT) was added to the incubated mixtures, covered with a MicroClime® Environmental Lid (Product No. LLS-0310, Labcyte) and immediately transferred to 37° C. The reactions were allowed to proceed at 37° C. for 60 minutes before terminating with the addition of 10 μL of detection antibody (LANCE® (lanthanide chelate excite) Ultra Europium-anti-phospo-DNA Topoisomerase 2-alpha (Thr1342)) in detection mixture (12 mM EDTA, 4 nM detection antibody prepared in detection buffer (50 mM Tris-HCl, 150 mM NaCl, 0.5% BSA (Fraction V), pH 7.0)) at room temperature. The plate was then read on a Perkin Elmer EnVision Plate Reader using europium specific reader settings with excitation and emission wavelengths set to 320 or 340 nm and 665 nm, respectively.
For dose-response analyses, percent inhibition versus compound concentrations were plotted, and pIC50 values were determined from a 4-parameter robust fit model with GraphPad Prism V5 Software (GraphPad Software, Inc., La Jolla, Calif.). This model obtains pIC50 values by fitting the sigmodial dose-response (variable slope) equation to the data. Results were expressed as pIC50 (negative logarithm of IC50) and subsequently converted to pKi (negative logarithm of dissociate constant, K) using the Cheng-Prusoff equation.
The higher the value of pKi (lower value of Ki), the greater the inhibition of ALK5 activity.

[2] = test system: TGF-β-stimulated SMAD3 phosphorylation in BEAS-2B cells; assay: Cellular ALK5 potency assay, inhibition of TGF-β stimulated pSMAD3 formation in BEAS-2B cells; assay type: cell-based; settings: Homo sapiens, inhibition of TGF-β (10 ng/mL) stimulated pSMAD3 formation, 1 hour compound incubation, read-out: BEAS2B pIC50 (converted)
Procedure: Example 255: Cellular ALK5 Potency Assay to Measure pIC50, Inhibition of TGF-β Stimulated pSMAD3 Formation in BEAS-2B Cells
The potency of compounds of the present disclosure for inhibition of TGF-β-stimulated SMAD3 phosphorylation was measured in BEAS-2B cells, a human lung epithelial cell line. TGF-β signals through activin receptor-like kinase 5 (ALK5) immediately prior to SMAD3 phosphorylation.
BEAS-2B cells were grown using 50% DMEM (Life Technologies) and 50% F-12 (Life Technologies) media, supplemented with 10% Fetal Bovine Serum (ATCC), 25 mM HEPES (Life Technologies), and 1×Pen-Strep (Life Technologies). Cells were cultured in a humidified incubator set at 37° C., 5% CO2, and trypsonized using 0.25% Trypsin with 0.5% polyvinylpyrrolidone (PVP).
For the assay, BEAS-2B cells were seeded at 7,500 cells/well (25 μL/well) in a 384-well plate and cultured overnight. Before dosing, growth media was aspirated and the wells were rinsed with HBSS Buffer (HBSS with Calcium and Magnesium, Life Technologies) supplemented with 25 mM HEPES (Life Technologies) and 1% Bovine Serum Albumin (Roche). Compounds were serially diluted in DMSO, then further diluted with supplemented HBSS Buffer (50 μL/well) to create a compound plate 3× of the final assay concentration, at 0.3% DMSO. The diluted compounds were then added to the cells (8 μL/well) and incubated at 37° C., 5% CO2 for 1 hour. After the compound incubation, TGF-β (R&D Systems) reconstituted in supplemented HBSS Buffer was added to the cells ([…], final concentration 10 ng/mL) and incubated for a further 30 minutes, after which the cells were immediately lysed with AlphaLISA lysis buffer (PerkinElmer). AlphaLISA Acceptor and Detector beads (PerkinElmer) were added 2 hours apart, then incubated overnight to be read the next day. The potency of the compound was determined through analysis of dose-dependent quantified changes in pSMAD3 signal from baseline (non-compound treated TGF-β stimulated cells). Data are expressed as pIC50 (negative decadic logarithm IC50) values.

Ki [1] [nM]	SMILES	IC50 [2] [nM]
0.398 to 3.16	CN(C)C1(C)CN(c2cnc3ccc(-c4c[nH]nc4-c4cc(Cl)c(F)cc4F)nc3c2)C1 [Compound 6-20, 1-[6-[3-(5-chloro-2,4-difluoro-phenyl)-1H-pyrazol-4-yl]-1,5-naphthyridin-3-yl]-N,N,3-trimethyl-azetidin-3-amine]	25.1 to 158
0.0398 to 0.316	CC(C)N1CCN(CCNc2cnc3ccc(-c4c[nH]nc4-c4cccc(Cl)c4)nc3c2)CC1 [Compound 28-1, 6-(3-(3-chlorophenyl)-1H-pyrazol-4-yl)-N-(2-(4-isopropylpiperazin-1-yl)ethyl)-1,5-naphthyridin-3-amine]	25.1 to 158
0.0398 to 0.316	CNC(=O)C1CN(c2cnc3ccc(-c4c[nH]nc4-c4cc(Cl)c(F)cc4F)nc3c2)CCN1 (racemic) [Compound 6-25, rac-(2R)-4-[6-[3-(5-chloro-2,4-difluoro-phenyl)-1H-pyrazol-4-yl]-1,5-naphthyridin-3-yl]-N-methyl-piperazine-2-carboxamide]	25.1 to 158
0.0398 to 0.316	CC(C)N1CCN(CCNc2cnc3ccc(-c4c(-c5cc(Cl)ccc5F)nc5ccccn45)nc3c2)CC1 [Compound 3-1, 6-(2-(5-chloro-2-fluorophenyl)imidazo[1,2-a]pyridin-3-yl)-N-(2-(4-isopropylpiperazin-1-yl)ethyl)-1,5-naphthyridin-3-amine]	25.1 to 158
3.98 to 31.6	Fc1cc(F)c(-c2n[nH]cc2-c2ccc3ncc(-c4ncc5n4CCN5)cc3n2)cc1Cl [Compound 6-65, 2-[3-(5-chloro-2,4-difluoro-phenyl)-1H-pyrazol-4-yl]-7-(2,3-dihydro-1H-imidazo[1,2-c]imidazol-5-yl)-1,5-naphthyridine]	200 to 1260
0.0398 to 0.316	Fc1ccc(Cl)cc1-c1[nH]cnc1-c1ccc2ncc(-c3cc4n(n3)CCNC4)cc2c1 [Compound 17-11, 6-[5-(5-chloro-2-fluoro-phenyl)-1H-imidazol-4-yl]-3-(4,5,6,7-tetrahydropyrazolo[1,5-a]pyrazin-2-yl)quinoline]	≤ 20
0.0398 to 0.316	Fc1ccc(Cl)cc1-c1nc2ccccn2c1-c1ccc2ncc(-c3cnc4n3CCNC4)cc2n1 [Compound 3-8, 2-[2-(5-chloro-2-fluoro-phenyl)imidazo[1,2-a]pyridin-3-yl]-7-(5,6,7,8-tetrahydroimidazo[1,2-a]pyrazin-3-yl)-1,5-naphthyridine]	25.1 to 158
0.398 to 3.16	Fc1cc(F)c(-c2n[nH]cc2-c2ccc3ncc(-c4nnn5c4CNCC5)cc3n2)cc1Cl [Compound 6-57, 2-[3-(5-chloro-2,4-difluoro-phenyl)-1H-pyrazol-4-yl]-7-(4,5,6,7-tetrahydrotriazolo[1,5-a]pyrazin-3-yl)-1,5-naphthyridine]	25.1 to 158
3.98 to 31.6	COCc1cccc(-c2n[nH]cc2-c2ccc3ncc(N4CCNCC4)cc3n2)c1 [Compound 14-16, 2-[3-[3-(methoxymethyl)phenyl]-1H-pyrazol-4-yl]-7-piperazin-1-yl-1,5-naphthyridine]	200 to 1260
0.0398 to 0.316	Fc1ccc(Cl)cc1-c1[nH]cnc1-c1ccc2ncc(-c3cnc4n3CCN4)cc2c1 [Compound 17-9, 6-(5-(5-chloro-2-fluorophenyl)-1H-imidazol-4-yl)-3-(2,3-dihydro-1H-imidazo[1,2-a]imidazol-5-yl)quinoline]	25.1 to 158
0.398 to 3.16	CC(C)N1CCN(CCNc2cnc3ccc(-c4nc[nH]c4-c4cc(Cl)ccc4F)cc3c2)CC1 [Compound 17-3, 6-(5-(5-chloro-2-fluorophenyl)-1H-imidazol-4-yl)-N-(2-(4-isopropylpiperazin-1-yl)ethyl)quinolin-3-amine]	25.1 to 158

Further lines, the compound ahead of its results:

SMILES	Ki [1] [nM]	IC50 [2] [nM]
CC1(C)CCCN1CCNc1cnc2ccc(-c3c[nH]nc3-c3cc(Cl)ccc3F)nc2c1 [Compound 1-13, 6-[3-(5-chloro-2-fluoro-phenyl)-1H-pyrazol-4-yl]-N-[2-(2,2-dimethylpyrrolidin-1-yl)ethyl]-1,5-naphthyridin-3-amine]	0.0398 to 0.316	≤ 20
Fc1ccc(Cl)cc1-c1[nH]cnc1-c1ccc2ncc(N3CCn4nc(C5=CCNC5)nc4C3)cc2n1 [Compound 2-14, 2-(5-(5-chloro-2-fluorophenyl)-1H-imidazol-4-yl)-7-(2-(2,5-dihydro-1H-pyrrol-3-yl)-5,6-dihydro-[1,2,4]triazolo[1,5-a]pyrazin-7(8H)-yl)-1,5-naphthyridine]	0.0398 to 0.316	200 to 1260
Fc1ccc(Cl)cc1-c1n[nH]cc1-c1ccc2ncc(NC3CCCNC3)cc2n1 (stereo not shown) [Compound 1-25, 6-[3-(5-chloro-2-fluoro-phenyl)-1H-pyrazol-4-yl]-N-(3-piperidyl)-1,5-naphthyridin-3-amine]	0.398 to 3.16	25.1 to 158
CNC(=O)C1CN(c2cnc3ccc(-c4c[nH]nc4-c4cc(Cl)ccc4F)nc3c2)CCN1C(C)C (racemic) [Compound 1-78, rac-(2R)-4-[6-[3-(5-chloro-2-fluoro-phenyl)-1H-pyrazol-4-yl]-1,5-naphthyridin-3-yl]-1-isopropyl-N-methyl-piperazine-2-carboxamide]	0.0398 to 0.316	25.1 to 158
CN1CCN(C2CCN(c3cnc4ccc(-c5nc[nH]c5-c5cc(Cl)ccc5F)nc4c3)CC2)CC1 [Compound 2-10, 2-[5-(5-chloro-2-fluoro-phenyl)-1H-imidazol-4-yl]-7-[4-(4-methylpiperazin-1-yl)-1-piperidyl]-1,5-naphthyridine]	0.0398 to 0.316	25.1 to 158
CN1CCC(N(C)c2cnc3ccc(-c4c[nH]nc4-c4cc(Cl)ccc4F)nc3c2)CC1 [Compound 1-37, 6-[3-(5-chloro-2-fluoro-phenyl)-1H-pyrazol-4-yl]-N-methyl-N-(1-methyl-4-piperidyl)-1,5-naphthyridin-3-amine]	0.0398 to 0.316	25.1 to 158
